Assay results as given in patent US20170334899A1, “AMINO-SUBSTITUTED ISOTHIAZOLES” (Bayer Pharma Aktiengesellschaft, priority 2014, published 2017).
Structures can show the parent of a compound that is named as a salt.

System: HeLa
Assay: Proliferation assay (crystal violet), HeLa
Format: cell-based
Conditions: HeLa cells; 4 days incubation; crystal violet staining; read-out: IC50 inhibition of proliferation, HeLa
Method in brief: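 Absorbance at 595 nm of crystal-violet-stained cells after 4 days' exposure to 0.001–10 μM compound (0.5% DMSO). Values normalized to a day-0 plate (0%) and untreated cells (100%); IC50 by 4-parameter fit.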

| IC50 [nM] | SMILES |
| --- | --- |
| 420 | Cc1nsc(Nc2cnc(C(F)(F)F)cn2)c1C(=O)Nc1ccc(OC2CCN(CCC(F)(F)F)CC2)nc1 [Example 426, 3-Methyl-5-{[5-(trifluoromethyl)pyrazin-2-yl]amino}-N-(6-{[1-(3,3,3-trifluoro-propyl)piperidin-4-yl]oxy}pyridin-3-yl)-1,2-thiazole-4-carboxamide, Salt with Hydrochloric Acid] |

Same assay, conditions: Homo sapiens, HeLa, 96 h, HeLa cells; 4 days incubation; crystal violet staining; read-out: IC50 inhibition of proliferation, HeLa

| IC50 [nM] | SMILES |
| --- | --- |
| 180 | Cc1nsc(Nc2cnc(C(F)(F)F)cn2)c1C(=O)Nc1ccc(O[C@@H]2CCN(CC(F)F)C[C@@H]2F)nc1 [Example 137, N-(6-{[(3S,4R)-1-(2,2-difluoroethyl)-3-fluoropiperidin-4-yl]oxy}pyridin-3-yl)-3-methyl-5-{[5-(trifluoromethyl)pyrazin-2-yl]amino}-1,2-thiazole-4-carboxamide] |
| 3300 | Cc1nsc(Nc2cnc(C(F)(F)F)cn2)c1C(=O)Nc1ccc(OC2CCN(C(C)C)CC2)nc1 [Example 160, N-{6-[(1-isopropylpiperidin-4-yl)oxy]pyridin-3-yl}-3-methyl-5-{[5-(trifluoromethyl)pyrazin-2-yl]amino}-1,2-thiazole-4-carboxamide] |
| 370 | CCCCN1CC[C@H](Oc2ccc(NC(=O)c3c(C)nsc3Nc3cnc(C(F)(F)F)cn3)cn2)[C@H](F)C1 [Example 148, N-(6-{[(3R,4S)-1-butyl-3-fluoropiperidin-4-yl]oxy}pyridin-3-yl)-3-methyl-5-{[5-(trifluoromethyl)pyrazin-2-yl]amino}-1,2-thiazole-4-carboxamide] |
| 420 | Cc1nsc(Nc2cnc(C(F)(F)F)cn2)c1C(=O)Nc1ccc(OC[C@H]2CCN(CC(F)(F)F)C2)nc1 (racemic) [Example 133, 3-Methyl-N-(6-{[(SR)-1-(2,2,2-trifluoroethyl)pyrrolidin-3-yl]methoxy}pyridin-3-yl)-5-{[5-(trifluoromethyl)pyrazin-2-yl]amino}-1,2-thiazole-4-carboxamide] |
| > 10000 | CC(=O)Nc1cc(NC(=O)c2c(C)nsc2Nc2ccc(C#N)cn2)ccc1F [Example 152, N-(3-acetamido-4-fluorophenyl)-5-[(5-cyanopyridin-2-yl)amino]-3-methyl-1,2-thiazole-4-carboxamide] |
| 450 | Cc1nsc(Nc2cnc(C(F)(F)F)cn2)c1C(=O)Nc1ccc(OC[C@H]2CCN(CCC(F)(F)F)C2)nc1 [Example 134, 3-Methyl-5-{[5-(trifluoromethyl)pyrazin-2-yl]amino}-N-(6-{[(3S)-1-(3,3,3-trifluoropropyl)pyrrolidin-3-yl]methoxy}pyridin-3-yl)-1,2-thiazole-4-carboxamide] |
| 140 | Cc1nsc(Nc2cnc(C(F)(F)F)cn2)c1C(=O)Nc1ccc(O[C@@H]2CCN(CC(F)(F)F)C[C@@H]2F)nc1 [Example 138, N-(6-{[(3S,4R)-3-fluoro-1-(2,2,2-trifluoroethyl)piperidin-4-yl]oxy}pyridin-3-yl)-3-methyl-5-{[5-(trifluoromethyl)pyrazin-2-yl]amino}-1,2-thiazole-4-carboxamide] |
| 320 | CCCN1CC[C@H](Oc2ccc(NC(=O)c3c(C)nsc3Nc3cnc(C(F)(F)F)cn3)cn2)[C@H](F)C1 [Example 147, N-(6-{[(3R,4S)-3-fluoro-1-propylpiperidin-4-yl]oxy}pyridin-3-yl)-3-methyl-5-{[5-(trifluoromethyl)pyrazin-2-yl]amino}-1,2-thiazole-4-carboxamide] |
| 6400 | Cc1nsc(Nc2cnc3ccccc3n2)c1C(=O)Nc1cccc(C(=O)N[C@H](C(=O)O)[C@@H](C)OC(C)(C)C)c1 [Example 104, O-tert-Butyl-N-[3-({[3-methyl-5-(quinoxalin-2-ylamino)-1,2-thiazol-4-yl]-carbonyl}amino)benzoyl]threonine] |
| 10000 | COC(=O)CNC(=O)c1cccc(NC(=O)c2c(C)nsc2Nc2cnc3ccccc3n2)c1 [Example 100, Methyl N-[3-({[3-methyl-5-(quinoxalin-2-ylamino)-1,2-thiazol-4-yl]carbonyl}amino)-benzoyl]glycinate] |
| 230 | Cc1nsc(Nc2cnc(C(F)(F)F)cn2)c1C(=O)Nc1ccc(OC[C@@H]2CCN(CC(F)(F)F)C2)nc1 [Example 128, 3-Methyl-N-(6-{[(3R)-1-(2,2,2-trifluoroethyl)pyrrolidin-3-yl]methoxy}pyridin-3-yl)-5-{[5-(trifluoromethyl)pyrazin-2-yl]amino}-1,2-thiazole-4-carboxamide] |
| 10000 | Cc1nsc(Nc2cnc3ccccc3n2)c1C(=O)Nc1cccc(C(=O)N[C@H](C(=O)O)[C@@H](C)O)c1 [Example 105, N-[3-({[3-methyl-5-(quinoxalin-2-ylamino)-1,2-thiazol-4-yl]carbonyl}amino)-benzoyl]threonine] |
| 260 | Cc1nsc(Nc2cnc(C(F)(F)F)cn2)c1C(=O)Nc1ccc(O[C@@H]2CCN(CCC(F)(F)F)C[C@@H]2F)nc1 [Example 139, N-(6-{[(3S,4R)-3-fluoro-1-(3,3,3-trifluoropropyl)piperidin-4-yl]oxy}pyridin-3-yl)-3-methyl-5-{[5-(trifluoromethyl)pyrazin-2-yl]amino}-1,2-thiazole-4-carboxamide] |
| 2500 | Cc1nsc(Nc2cnc(C(F)(F)F)cn2)c1C(=O)Nc1ccc(C(=O)N2CCN(CC(F)F)CC2)cc1 [Example 154, N-(4-{[4-(2,2-difluoroethyl)piperazin-1-yl]carbonyl}phenyl)-3-methyl-5-{[5-(trifluoromethyl)pyrazin-2-yl]amino}-1,2-thiazole-4-carboxamide] |
| 460 | Cc1nsc(Nc2cnc(C(F)(F)F)cn2)c1C(=O)Nc1ccc(OC[C@@H]2CCN(CC(F)F)C2)nc1 [Example 127, N-(6-{[(3R)-1-(2,2-difluoroethyl)pyrrolidin-3-yl]methoxy}pyridin-3-yl)-3-methyl-5-{[5-(trifluoromethyl)pyrazin-2-yl]amino}-1,2-thiazole-4-carboxamide] |
| 4300 | Cc1nsc(Nc2cncc(C(F)(F)F)n2)c1C(=O)Nc1ccc(C(=O)NC2CCN(CC(F)(F)F)CC2)cc1 [Example 167, 3-methyl-N-(4-{[1-(2,2,2-trifluoroethyl)piperidin-4-yl]carbamoyl}phenyl)-5-{[6-(trifluoromethyl)pyrazin-2-yl]amino}-1,2-thiazole-4-carboxamide] |
| 160 | Cc1nsc(Nc2cnc(C(F)(F)F)cn2)c1C(=O)Nc1ccc(O[C@H]2CCN(CC(F)(F)F)C[C@H]2F)nc1 [Example 145, N-(6-{[(3R,4S)-3-fluoro-1-(2,2,2-trifluoroethyl)piperidin-4-yl]oxy}pyridin-3-yl)-3-methyl-5-{[5-(trifluoromethyl)pyrazin-2-yl]amino}-1,2-thiazole-4-carboxamide] |
| 160 | Cc1nsc(Nc2cnc(C(F)(F)F)cn2)c1C(=O)Nc1ccc(O[C@H]2CCN(CC(F)F)C[C@H]2F)nc1 [Example 144, N-(6-{[(3R,4S)-1-(2,2-difluoroethyl)-3-fluoropiperidin-4-yl]oxy}pyridin-3-yl)-3-methyl-5-{[5-(trifluoromethyl)pyrazin-2-yl]amino}-1,2-thiazole-4-carboxamide] |
| 5300 | Cc1nsc(Nc2cc(C#N)ccn2)c1C(=O)Nc1ccc(Oc2cccnc2)nc1 [Example 119, 5-[(4-Cyanopyridin-2-yl)amino]-3-methyl-N-[6-(pyridin-3-yloxy)pyridin-3-yl]-1,2-thiazole-4-carboxamide] |
